Data published in paper PMC8967206, “Pyrimidine-5-carbonitrile based potential anticancer agents as apoptosis inducers through PI3K/AKT axis inhibition in leukaemia K562” (Journal of Enzyme Inhibition and Medicinal Chemistry, 2022).
Read-outs that look alike come from different tables or passages of the source. One block for each molecule: values may come before it.

Tests used:
[1] = system: leukaemia (K562) cell line; assay: MTT colorimetric cytotoxicity assay, K562; assay type: cell-based; details: Homo sapiens, 48 h incubation, mean ± SD of three experiments
Method: (§2) Cytotoxicity of our sixteen innovative compounds 4(a–e), 5(a–d), 6, and 7(a–f) together with control was assessed by means of in-vitro toxicology assay kit, MTT based (Sigma Aldrich, St. Louis, MO) against MCF-7 and K562 cell lines incubated in 96 microwell plates and proceeded as reported[32]^,[33]. MTT (3-[4,5-dimethylthiazol-2-yl]-2,5-diphenyl tetrazolium bromide) method measures the activity of living cells through mitochondrial dehydrogenase. Mitochondrial dehydrogenases of viable cells cleave the tetrazolium ring, giving purple formazan crystals that are dissolved in acidified isopropanol and the resulting purple solution is measured spectrophotometrically. The change in cell number is proportional to the intensity of purple colour produced and the degree of cytotoxicity caused by the test compounds. The absorbance at a wavelength of 570 nm was measured using (ROBONIK P2000 spectrophotometer) and the background absorbance of multi-well plates at 690 nm then the absorbance at 690 nm was subtracted from the 570 nm measurement. Five concentrations from each test compound ranging from (0.04 to 100 µM) were prepared and the experiments were done in triplicate.

[2] = system: breast cancer (MCF-7) cell line; assay: MTT colorimetric cytotoxicity assay, MCF-7; assay type: cell-based; details: Homo sapiens, MCF7, 48 h incubation, mean ± SD of three experiments
Method: as §2

PI3Kδ = molecular target: T1, PI3Kδ (Homo sapiens, UniProt O00329); assay: PI3K enzyme inhibition assay (ADP-Glo), PI3Kδ; assay type: biochemical; details: mean ± SD of three experiments
T1 construct: purchased BPS Bioscience, San Diego, CA
T1 sequence (O00329 whole entry): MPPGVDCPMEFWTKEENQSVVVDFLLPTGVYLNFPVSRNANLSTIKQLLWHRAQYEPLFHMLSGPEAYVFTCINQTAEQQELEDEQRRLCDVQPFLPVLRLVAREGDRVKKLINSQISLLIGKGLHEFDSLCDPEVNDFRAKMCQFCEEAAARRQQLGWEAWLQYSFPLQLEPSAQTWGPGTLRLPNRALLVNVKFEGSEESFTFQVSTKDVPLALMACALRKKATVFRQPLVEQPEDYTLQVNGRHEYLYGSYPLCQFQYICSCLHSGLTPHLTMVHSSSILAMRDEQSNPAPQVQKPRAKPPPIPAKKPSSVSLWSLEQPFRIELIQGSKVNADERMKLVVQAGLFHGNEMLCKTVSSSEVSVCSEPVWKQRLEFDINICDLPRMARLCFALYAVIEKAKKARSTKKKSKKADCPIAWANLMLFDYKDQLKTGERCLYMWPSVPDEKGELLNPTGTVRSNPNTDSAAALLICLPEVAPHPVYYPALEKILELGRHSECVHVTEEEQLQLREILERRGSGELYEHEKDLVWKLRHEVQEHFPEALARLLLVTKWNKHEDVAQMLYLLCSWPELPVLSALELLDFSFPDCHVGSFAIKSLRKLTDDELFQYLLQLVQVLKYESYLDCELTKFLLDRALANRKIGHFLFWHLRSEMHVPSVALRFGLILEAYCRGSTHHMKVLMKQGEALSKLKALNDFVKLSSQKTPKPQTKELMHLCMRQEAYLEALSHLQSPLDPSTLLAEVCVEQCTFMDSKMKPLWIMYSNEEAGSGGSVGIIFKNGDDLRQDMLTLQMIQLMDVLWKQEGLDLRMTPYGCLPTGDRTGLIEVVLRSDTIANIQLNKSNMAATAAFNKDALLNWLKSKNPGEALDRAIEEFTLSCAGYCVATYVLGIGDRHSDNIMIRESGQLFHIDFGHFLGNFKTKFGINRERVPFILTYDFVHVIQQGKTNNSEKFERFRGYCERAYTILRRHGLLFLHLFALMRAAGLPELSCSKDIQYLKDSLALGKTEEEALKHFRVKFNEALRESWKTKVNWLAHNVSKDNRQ
T1 sequence (P27986 whole entry partner): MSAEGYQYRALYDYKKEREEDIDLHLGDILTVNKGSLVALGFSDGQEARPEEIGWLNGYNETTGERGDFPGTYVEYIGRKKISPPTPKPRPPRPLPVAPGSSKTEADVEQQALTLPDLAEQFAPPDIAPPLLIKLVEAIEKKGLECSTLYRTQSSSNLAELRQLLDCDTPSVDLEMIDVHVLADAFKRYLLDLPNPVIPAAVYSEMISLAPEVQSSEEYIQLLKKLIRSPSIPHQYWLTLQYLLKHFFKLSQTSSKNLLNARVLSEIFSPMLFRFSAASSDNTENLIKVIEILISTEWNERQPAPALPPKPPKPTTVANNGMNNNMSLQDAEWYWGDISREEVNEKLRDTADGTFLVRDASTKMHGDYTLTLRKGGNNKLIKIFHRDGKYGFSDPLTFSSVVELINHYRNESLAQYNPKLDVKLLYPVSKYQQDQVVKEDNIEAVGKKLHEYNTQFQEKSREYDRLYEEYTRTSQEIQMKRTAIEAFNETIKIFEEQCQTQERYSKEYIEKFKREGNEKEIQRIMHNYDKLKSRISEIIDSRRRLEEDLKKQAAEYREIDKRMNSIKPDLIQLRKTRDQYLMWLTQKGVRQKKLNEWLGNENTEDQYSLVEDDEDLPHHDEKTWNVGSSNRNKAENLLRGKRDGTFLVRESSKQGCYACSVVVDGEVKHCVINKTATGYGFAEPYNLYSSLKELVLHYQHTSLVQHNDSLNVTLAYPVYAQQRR
Method: (§3) The inhibition activities of 4d and 7f against PI3K enzyme were detected using PI3K assay kits and ADP-Glo kinase assay as a detection buffer (BPS Bioscience, San Diego, CA). According to the manufacturer’s instructions, PI3K enzyme was diluted with 2.5x Kinase assay buffer to obtain 4 ng/µl. The assay was performed in 96 well plates as follows: 5 µl of PIP2 substrate was added to each well followed by 5 ul from each inhibitor except for the positive control and blanks where the inhibitor buffers were added instead. Of 5 ul of 12.5 µM ATP was added. The reactions were initiated by adding 10 µl of diluted PI3K enzyme to the positive control and inhibitors wells. Plate was carefully shaked and was incubated at 30 °C for 40 min. After the 40 min incubation, 25 µl of ADP-Glo reagent were added to each well. The plate was covered with aluminium foil and incubated at room temperature for another 45 min. Of 50 µl of Kinase Detection reagent was added to each well. Plate was covered with aluminium foil and incubated at room temperature for extra 30 min. Luminescence was measured using microplate reader. Four concentrations from the two tested compounds ranged from (0.1 to 100 µM) were prepared and the experiment was repeated in triplicate. […] IC50 values were calculated using dose-response curves and linear regression equation.

[3] = set-up: method as in PMID 32659486; details: printed in Figure 4, target not given; cited from earlier work
PI3K = assay: Western blot, PI3K expression in K562; assay type: cell-based; details: K562, 48 h; control 0.881
Method: (§1) K562 cells were treated with the most promising compound (7f), for 48 h. Protein from control and treated cells was harvested and the concentration was measured via Bradford protein assay (Bio-Rad, Hercules, CA). The samples were loaded and separated by sodium dodecyl sulphate (SDS)-polyacrylamide gel electrophoresis and then transferred onto a polyvinylidene difluoride (PVDF) membrane. Western blot analysis was performed according to previously described.

PI3Kγ = molecular target: T2, PI3Kγ (Homo sapiens, UniProt P48736); assay: PI3K enzyme inhibition assay (ADP-Glo), PI3Kγ; assay type: biochemical; details: mean ± SD of three experiments
T2 construct: purchased BPS Bioscience, San Diego, CA
T2 sequence (P48736 whole entry): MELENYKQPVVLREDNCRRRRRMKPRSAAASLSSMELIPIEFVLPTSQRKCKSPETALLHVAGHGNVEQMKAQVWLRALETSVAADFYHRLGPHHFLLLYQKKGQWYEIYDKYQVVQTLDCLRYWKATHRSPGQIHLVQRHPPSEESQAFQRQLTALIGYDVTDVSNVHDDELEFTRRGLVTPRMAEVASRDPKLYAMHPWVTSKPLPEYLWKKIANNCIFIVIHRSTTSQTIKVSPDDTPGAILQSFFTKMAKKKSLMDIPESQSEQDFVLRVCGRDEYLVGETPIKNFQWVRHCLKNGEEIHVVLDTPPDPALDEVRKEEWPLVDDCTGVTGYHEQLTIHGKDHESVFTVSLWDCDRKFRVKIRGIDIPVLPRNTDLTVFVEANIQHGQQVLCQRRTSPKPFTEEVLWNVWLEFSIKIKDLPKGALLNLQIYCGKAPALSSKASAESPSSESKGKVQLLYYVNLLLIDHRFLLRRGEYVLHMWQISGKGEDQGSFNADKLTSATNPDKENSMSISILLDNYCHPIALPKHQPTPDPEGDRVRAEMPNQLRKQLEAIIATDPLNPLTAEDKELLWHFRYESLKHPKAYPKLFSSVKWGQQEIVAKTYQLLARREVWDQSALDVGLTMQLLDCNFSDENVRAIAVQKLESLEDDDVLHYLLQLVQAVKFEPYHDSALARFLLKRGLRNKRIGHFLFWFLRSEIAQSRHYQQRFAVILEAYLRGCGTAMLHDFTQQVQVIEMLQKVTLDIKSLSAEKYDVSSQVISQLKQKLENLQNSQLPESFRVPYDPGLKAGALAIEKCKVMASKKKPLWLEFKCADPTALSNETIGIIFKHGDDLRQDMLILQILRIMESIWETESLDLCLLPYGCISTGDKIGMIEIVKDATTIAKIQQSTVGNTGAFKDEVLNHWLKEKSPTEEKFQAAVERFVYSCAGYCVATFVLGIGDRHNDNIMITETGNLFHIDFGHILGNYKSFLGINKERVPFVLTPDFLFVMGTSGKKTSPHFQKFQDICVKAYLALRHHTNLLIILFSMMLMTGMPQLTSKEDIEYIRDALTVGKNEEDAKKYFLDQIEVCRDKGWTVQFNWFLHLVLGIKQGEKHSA
Method: as §3

K562 cells [4] = assay: Cell cycle analysis (PI flow cytometry); assay type: cell-based
Method: Cell cycle analysis was determined by propidium iodide (PI) flow cytometry kit/BD. K562 cells were treated by compound 7f at its IC50 concentration. Then cells were washed in PBS, fixed in cold 70% ethanol for 30 min, washed twice in PBS, and centrifuged to remove supernatant, after that, cells were treated with 0.1 mg/ml ribonuclease, stained with 0.05 mg/ml PI. The results were analysed by flow cytometry using FACS calibre and cell cycle distribution were calculated and accomplished as reported[26]^,[34]^,[35].
As reported in the literature, inhibition of PI3K/AKT pathway affects the cell survival and proliferation[8]^,[9]. Thus, to investigate the effect of compound 7f in PI3K/Akt dual inhibition on cell cycle progression, cell cycle analysis was performed by flowcytometric analysis as reported[34]^,[35] on K562 cells treated with compound 7f. The outcomes presented in Table 4 indicated the interference with the cell cycle distribution, following 7f treatment, where there was a marked increase in the cells in pre-G1 phase by nearly 17-fold as compared to the control.

Cyclin D1 = assay: Western blot, Cyclin D1 expression in K562; assay type: cell-based; details: K562, 48 h; control 0.849
Method: as §1

[5] = In-vivo acute toxicity study; details: rat, 2 g/kg, female rats, po, observed 14 d, read-out: median lethal dose (LD50)
Method: Five female rats (180–200 g) were used in this test. The animals were fasted for 24 h prior to administration of the test compound. The compound was administered in a dose of 2 g/kg body weight, po . Animals are observed individually and the mortalities were recorded at least once during the first 30 min after dosing, periodically during the first 24 h and daily afterwards, for a total of 14 d[40]. All animals received humane care and experimental procedures were carried out in strict accordance with the health and care guidelines for experimental animals. All experimental operations performed on rats were approved by the Animal Experiment Ethics Committee of Heliopolis University (Approval number HU.REC.A0.23-2021).
The toxicological profile of the most promising synthesised anticancer compound 7f was evaluated in female rats using the reported method in OECD guidelines. […]

K562 cells [6] = assay: Annexin-V-FITC apoptosis assay; assay type: cell-based; details: K562, 48 h
Method: Apoptosis induction was assayed by staining K562 cells with Annexin-V (fluorescein isothiocyanate) and the counterstaining PI using the Annexin-V-FITC/PI apoptosis detection kit (BD Biosciences, San Diego, CA) according to the manufacturer’s instructions. Cells were exposed to the tested compound for 48 h. After that, the cells were collected by trypsinisation and 0.5 × 10^6 cells and washed twice with phosphate-buffered saline (PBS) followed by staining with 5 µl Annexin-V-FITC and 5 µl PI in 1 × binding buffer for 15 min at room temperature in the dark. FACS Calibre flow cytometer (BD Biosciences, San Diego, CA)[26]^,[36]^,[37] was used for analyses.
Data of the current research highlighted that treating Leukaemia K562 cells for 48 h with the compound 7f caused an increase in the percentage of Annexin-V positive apoptotic cells both in the early and late stage which represents a total significant 17-fold increase compared to the control.

AKT = assay: Western blot, AKT expression in K562; assay type: cell-based; details: K562, 48 h; control 0.744
Method: as §1

p-PI3K = assay: Western blot, p-PI3K expression in K562; assay type: cell-based; details: K562, 48 h; control 0.639
Method: as §1

[7] = system: normal fibroblast cell line (WI-38); assay: Cytotoxicity on normal fibroblast cell line; assay type: cell-based; details: WI-38 versus K562
[8] = Cytotoxicity on normal fibroblast cell line; assay type: cell-based; details: human, WI-38 normal fibroblast cells; non-tumorigenic cell line
NFkb = assay: Western blot, NFkb expression in K562; assay type: cell-based; details: K562, 48 h; control 0.719
Method: as §1

p-AKT = assay: Western blot, p-AKT expression in K562; assay type: cell-based; details: K562, 48 h; control 0.692
Method: as §1

AKT-1 = AKT-1 (Homo sapiens, UniProt P31749); assay: AKT enzyme inhibition assay (ELISA, cell lysates); assay type: biochemical; details: mean ± SD of three experiments
Chain of AKT-1 (P31749 whole entry): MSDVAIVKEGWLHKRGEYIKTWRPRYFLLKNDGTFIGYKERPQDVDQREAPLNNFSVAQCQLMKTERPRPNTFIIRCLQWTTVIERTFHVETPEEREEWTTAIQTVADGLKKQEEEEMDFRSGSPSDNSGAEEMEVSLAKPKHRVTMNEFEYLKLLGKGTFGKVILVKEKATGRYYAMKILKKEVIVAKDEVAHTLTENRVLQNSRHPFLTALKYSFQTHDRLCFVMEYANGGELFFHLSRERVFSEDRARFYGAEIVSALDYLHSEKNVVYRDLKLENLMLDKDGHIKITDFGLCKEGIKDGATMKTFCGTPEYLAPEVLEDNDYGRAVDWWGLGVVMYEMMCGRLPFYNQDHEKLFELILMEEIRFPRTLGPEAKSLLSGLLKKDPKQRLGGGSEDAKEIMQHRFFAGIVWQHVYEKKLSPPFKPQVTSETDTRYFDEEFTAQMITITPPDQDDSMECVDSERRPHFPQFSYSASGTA
Method: In brief, cell lysates were collected after treatment with the tested compounds using lysis buffer and centrifuged at 13,000 rpm for 15 min to obtain the cytosolic fraction. Samples were soaked with the kinase diluted buffer and the reaction was initiated by adding 10 µl of diluted ATP to each well, except blanks. Plate was incubated at 30 °C for up to 90 min covered with an adhesive plate sealer with gentle, shaking every 20 min. The reaction was stopped by emptying contents of each well. Of 40 µl of the phospho-specific substrate antibody was added except blank then incubated incubate at room temperature for 60 min, with shaking every 20 min. The liquid was aspirated and the wells washed three times with 1X washing buffer. After the last wash, liquid was aspirated and 40 µl of the diluted Anti-Rabbit IgG: HRP conjugate was added except blank, and incubated at room temperature for 30 min with shaking every 10 min. Plate was washed as described before. Of 60 µl of the TMB Substrate was added to each well and incubated at room temperature for 30–60 min. The reaction was stopped by adding 20 µl of the stop solution to each well. Absorbance was measured at 450 nm. Four concentrations from the tested compounds were prepared ranged from 0.1 to 100 µM and the assay was done in triplicates. […] LY2780301 compound was used as the positive control.

[9] = K562, treated at IC50 concentration

SMILES: COc1ccc(-c2nc(SC)nc(NN)c2C#N)cc1 [compound 6, 4-Hydrazineyl-6-(4-methoxyphenyl)-2-(methylthio)pyrimidine-5-carbonitrile]
- IC50 [1]: 6.67 ± 0.32 µM
- IC50 [2]: 3.49 ± 0.19 µM
- melting point: 270 to 272 °C

SMILES: COc1ccc(-c2nc(SC)nc(Nc3ccc(Br)cc3)c2C#N)cc1 [5d, 4-((4-Bromophenyl)amino)-6-(4-methoxyphenyl)-2-(methylthio)pyrimidine-5-carbonitrile]
- IC50 [1]: 5.52 ± 0.26 µM
- IC50 [2]: 15.7 ± 0.85 µM

SMILES: COc1ccc(-c2nc(N/N=C/c3c[nH]c4ccccc34)nc(N3CCOCC3)c2C#N)cc1 [VIII]
- IC50 [3]: 10.9 µM

SMILES: COc1ccc(-c2nc(SC)nc(NN=Cc3cc(OC)c(OC)c(OC)c3)c2C#N)cc1 [7f, 4-(4-Methoxyphenyl)-2-(methylthio)-6-(2-(3,4,5-trimethoxybenzylidene)hydrazineyl)pyrimidine-5-carbonitrile]
- IC50 [1]: 2.62 ± 0.12 µM
- IC50 (PI3Kδ): 4.01 ± 0.55 µM
- Western blot [OD] PI3K (PI3K): 0.219 OD
- IC50 (PI3Kγ): 6.99 ± 0.36 µM
- Cell cycle analysis, Comment (K562 cells [4]; K562): Cell growth arrest at S phase
- Increase in S-phase compared to the control (K562 cells [4]; K562): ~1.3 fold
- Increase in cells in pre-G1 phase compared to the control (K562 cells [4]; K562): ~17 fold
- DNA content % %G0-G1 (K562 cells [4]; [9]): 44.97%
- DNA content % %Pre-G1 (K562 cells [4]; [9]): 31.72%
- IC50 [2]: 3.22 ± 0.18 µM
- Western blot [OD] Cyclin D1 (Cyclin D1): 0.383 OD
- LD50 at 14 d [5]: > 2000 mg/kg
- Apoptosis% Early (K562 cells [6]): 3.19%
- Apoptosis% Late (K562 cells [6]): 19.04%
- Apoptosis% Total (K562 cells [6]): 31.72%
- Necrosis (K562 cells [6]): 9.49%
- Total increase of Annexin-V positive apoptotic cells compared to the control (K562 cells [6]): 17 fold
- Western blot [OD] AKT (AKT): 0.402 OD
- Western blot [OD] p-PI3K (p-PI3K): 0.281 OD
- SI (selectivity index) [7]: 13.29
- IC50 [8]: 34.8 ± 2.11 µM
- Western blot [OD] NFkb (NFkb): 0.402 OD
- Western blot [OD] p-AKT (p-AKT): 0.316 OD

SMILES: COc1ccc(-c2nc(SC)nc(N3CCN(C)CC3)c2C#N)cc1 [4b, 4-(4-Methoxyphenyl)-6-(4-methylpiperazin-1-yl)-2-(methylthio)pyrimidine-5-carbonitrile]
- IC50 [1]: 93.6 ± 4.44 µM
- IC50 [2]: 56.3 ± 3.06 µM

SMILES: COc1ccc(-c2nc(SC)nc(N3CCNCC3)c2C#N)cc1 [4a, 4-(4-Methoxyphenyl)-2-(methylthio)-6-(piperazin-1-yl)pyrimidine-5-carbonitrile]
- IC50 [1]: 7.97 ± 0.38 µM
- IC50 [2]: 2.54 ± 0.14 µM

SMILES: COc1ccc(C=NNc2nc(SC)nc(-c3ccc(OC)cc3)c2C#N)cc1 [7b, 4-(2-(4-Methoxybenzylidene)hydrazineyl)-6-(4-methoxyphenyl)-2-(methylthio)pyrimidine-5-carbonitrile]
- IC50 [1]: 16.8 ± 0.8 µM
- IC50 [2]: 22.9 ± 1.24 µM
- melting point: 244 to 246 °C

SMILES: COc1ccc(-c2nc(SC)nc(Nc3ccc(Cl)cc3)c2C#N)cc1 [5c]
- IC50 [1]: 5.82 ± 0.28 µM
- IC50 [2]: 46.9 ± 2.55 µM

SMILES: COc1ccc(-c2nc(SC)nc(N3CCN(c4ccccc4)CC3)c2C#N)cc1 [4c, 4-(4-Methoxyphenyl)-2-(methylthio)-6-(4-phenylpiperazin-1-yl)pyrimidine-5-carbonitrile]
- IC50 [1]: 3.86 ± 0.18 µM
- IC50 [2]: 6.64 ± 0.36 µM

SMILES: COc1ccc(-c2nc(SC)nc(N3CCN(c4ccccc4F)CC3)c2C#N)cc1 [4d, 4-(4-(2-Fluorophenyl)piperazin-1-yl)-6-(4-methoxyphenyl)-2-(methylthio)pyrimidine-5-carbonitrile]
- IC50 [1]: 1.06 ± 0.05 µM
- IC50 (PI3Kδ): 23.9 ± 1.2 µM
- IC50 (PI3Kγ): 35.1 ± 1.82 µM
- IC50 [2]: 0.8 ± 0.25 µM
- melting point: 142 to 144 °C
- SI (selectivity index) [7]: 109.72
- IC50 [8]: 116 ± 7.03 µM

Continued, in another order:

- IC50 (PI3Kδ): 13.4 ± 0.67 µM
SMILES: O=c1cc(N2CCOCC2)oc2c(-c3ccccc3)cccc12 [LY294002, reference compound]

- melting point: 170 to 172 °C
SMILES: COc1ccc(-c2nc(SC)nc(N3CCN(c4ccccc4OC)CC3)c2C#N)cc1 [4e, 4-(4-Methoxyphenyl)-6-(4-(2-methoxyphenyl)piperazin-1-yl)-2-(methylthio)pyrimidine-5-carbonitrile]
- IC50 [1]: 34.8 ± 1.65 µM
- IC50 [2]: 15.6 ± 0.85 µM

- melting point: 246 to 248 °C
SMILES: COc1ccc(-c2nc(SC)nc(NN=Cc3ccc(Br)cc3)c2C#N)cc1 [7d, 4-(2-(4-Bromobenzylidene)hydrazineyl)-6-(4-methoxyphenyl)-2-(methylthio)pyrimidine-5-carbonitrile]
- IC50 [1]: 44.3 ± 2.1 µM
- IC50 [2]: 56 ± 3.05 µM

- melting point: 266 to 268 °C
SMILES: COc1ccc(-c2nc(SC)nc(NN=Cc3ccc(Cl)cc3)c2C#N)cc1 [7c, 4-(2-(4-Chlorobenzylidene)hydrazineyl)-6-(4-methoxyphenyl)-2-(methylthio)pyrimidine-5-carbonitrile]
- IC50 [1]: 3.76 ± 0.18 µM
- IC50 [2]: 7.42 ± 0.4 µM

- IC50 (AKT-1): 4.62 ± 0.24 µM
SMILES: CN(C)CCn1cc(-c2ccc(F)c(C(F)(F)F)c2)nc1C1CCN(c2ncnc3c2CC(=O)N3)CC1 [LY2780301]

- melting point: 248 to 250 °C
SMILES: COc1ccc(-c2nc(SC)nc(NN=Cc3ccc([N+](=O)[O-])cc3)c2C#N)cc1 [7e, 4–(4-Methoxyphenyl)-2-(methylthio)-6-(2-(4-nitrobenzylidene)hydrazineyl)pyrimidine-5-carbonitrile]
- IC50 [1]: 5.36 ± 0.25 µM
- IC50 [2]: 7.11 ± 0.39 µM

- melting point: 246 to 248 °C
SMILES: COc1ccc(-c2nc(SC)nc(NN=Cc3ccc(C)cc3)c2C#N)cc1 [7a, 4–(4-Methoxyphenyl)-6-(2-(4-methylbenzylidene)hydrazineyl)-2-(methylthio)pyrimidine-5-carbonitrile]
- IC50 [1]: 22.8 ± 1.08 µM
- IC50 [2]: 30.5 ± 1.66 µM

- melting point: 270 to 272 °C
SMILES: COc1ccc(-c2nc(SC)nc(Nc3ccc(C)cc3)c2C#N)cc1 [5a, 4-(4-Methoxyphenyl)-2-(methylthio)-6-(p-tolylamino)pyrimidine-5-carbonitrile]
- IC50 [1]: 26.3 ± 1.25 µM
- IC50 [2]: 21.3 ± 1.16 µM

- melting point: 238 to 240 °C
SMILES: COc1ccc(Nc2nc(SC)nc(-c3ccc(OC)cc3)c2C#N)cc1 [5b, 4-(4-Methoxyphenyl)-6-((4-methoxyphenyl)amino)-2-(methylthio)pyrimidine-5-carbonitrile]
- IC50 [1]: 46.3 ± 2.2 µM
- IC50 [2]: 125 ± 6.82 µM
